Results as given in ChEMBL document CHEMBL6074675, “4-Substituted-2-Thiazole Amides as Viral Replication Inhibitors of Alphaviruses” (J Med Chem, 2024).
Calls of active or inactive are those of the source. The calls are words filed in the database; no cut-off is given here.

Columns and labels:
West Nile virus [1] = assay: Antiviral activity against West Nile virus NY99 infected in human HEK293 cells assessed as log reduction of virus titer at 10 uM measured at 3 days post-infection by focus-forming assay; assay type: functional; conditions: time 3 day
Chikungunya virus [2] = assay: Antiviral activity against Chikungunya virus 181/25 infected in C57BL/6J mouse assessed as reduction in viral load in contralateral ankle at 80 mg/kg, ip bid for 3 days infected with virus at 2 hrs after first compound treatment and measured at 12 hrs post-final treatment; assay type: functional, organism-based; conditions: time 3.0 day
Heme oxygenase 1 = target: T1, Heme oxygenase 1 (Homo sapiens, UniProt P09601); assay: Inhibition of HO-1 (unknown origin)
T1 sequence (P09601 whole entry): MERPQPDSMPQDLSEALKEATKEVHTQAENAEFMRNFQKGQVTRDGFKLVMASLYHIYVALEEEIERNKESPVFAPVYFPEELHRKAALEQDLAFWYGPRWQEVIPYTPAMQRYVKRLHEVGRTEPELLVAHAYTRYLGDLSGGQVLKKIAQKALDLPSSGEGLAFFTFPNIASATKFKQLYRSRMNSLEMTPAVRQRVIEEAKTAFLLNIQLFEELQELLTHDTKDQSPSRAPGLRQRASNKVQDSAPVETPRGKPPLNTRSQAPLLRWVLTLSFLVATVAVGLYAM

Homo sapiens [3] = organism: Homo sapiens; assay: Inhibition of CDK (unknown origin) upto 10 uM relative to control
[4] = Kinetic solubility of the compound in simulated intestinal fluid at pH 7.5 by LC-MS analysis; assay type: physicochemical; conditions: read-out: Kinetic_solubility
Chikungunya virus [5] = assay: Antiviral activity against Chikungunya virus 181/25 infected in C57BL/6J mouse assessed as reduction in viral dissemination to spleen at 80 mg/kg, ip bid for 3 days infected with virus at 2 hrs after first compound treatment and measured at 12 hrs post-final dose by RT-qPCR analysis; assay type: functional, organism-based; conditions: time 3.0 day
[6] = Octanol/PBS buffer distribution coefficient, logD of the compound at pH 7.5 by LC-MS analysis; assay type: physicochemical
Chikungunya virus [7] = assay: Antiviral activity against Chikungunya virus 181/25 infected in human NHDF cells assessed as inhibition of viral entry at 10 uM pretreated with virus for 2 hrs prior to infection and measured at 24 hrs post-infection by plaque assay; assay type: functional, organism-based; conditions: time 26.0 hrs
Homo sapiens [8] = organism: Homo sapiens; assay: Inhibition of MAPK (unknown origin) upto 10 uM relative to control
[9] = Cytotoxicity against human HEK293 cells; assay type: toxicity, cell-based
Homo sapiens [10] = organism: Homo sapiens; assay: Inhibition of Numb-asociated kinase (unknown origin) upto 10 uM relative to control
Chikungunya virus [11] = assay: Antiviral activity against Chikungunya virus 181/25 infected in human NHDF cells assessed as inhibition of viral translation by measuring decrease in E2 protein expression at 10 uM cells treated with compound prior to infection and measured at 12 hrs post-infection by western blot analysis; assay type: functional, organism-based
Chikungunya virus [12] = assay: (§1) Antiviral activity against Chikungunya virus 181/25 infected in human NHDF cells assessed as inhibition of viral RNA synthesis by measuring 49S genomic RNA accumulation at 10 uM treated with cells for 1 hr prior to infection and measured at 12 hrs post-infection by DIG-labeled probe based Northern blot analysis; assay type: functional, organism-based; conditions: time 13.0 hrs
dengue virus type 2 [13] = assay: Antiviral activity against Dengue virus 2 NGC infected in human HEK293 cells assessed as reduction of virus load measured at 3 days post-infection by focus-forming assay; assay type: functional; conditions: HEK293, 72 h, time 3 day
Chikungunya virus [14] = assay: Antiviral activity against Chikungunya virus 181/25 infected in human NHDF cells assessed as log reduction of virus titer at 10 uM treated with cells at 1 hr prior to infection and measured at 24 hrs post-infection by plaque assay; assay type: functional; conditions: time 25 hrs
[15] = Half life in C57BL/6 mouse at 1 mg/kg, iv; assay type: ADME, organism-based; conditions: in vivo
Zika virus [16] = assay: Antiviral activity against Zika virus PRABC59 infected in human HEK293 cells assessed as log reduction of virus titer at 10 uM measured at 3 days post-infection by focus-forming assay; assay type: functional; conditions: time 3 day
[17] = tested on: Venezuelan equine encephalitis virus; assay: Antiviral activity against VEEV TC-83 infected in human NHDF cells assessed as log reduction of virus titer at 10 uM treated with cells at 1 hr prior to infection and measured at 24 hrs post-infection by plaque assay; assay type: functional; conditions: time 25 hrs
dengue virus type 2 [18] = assay: Antiviral activity against Dengue virus 2 NGC infected in human HEK293 cells assessed as log reduction of virus titer at 10 uM measured at 3 days post-infection by focus-forming assay; assay type: functional; conditions: time 3 day
[19] = AUC in C57BL/6 mouse at 40 mg/kg, ip; assay type: ADME, organism-based; conditions: in vivo
Chikungunya virus [20] = assay: Antiviral activity against Chikungunya virus 181/25 infected in C57BL/6J mouse assessed as reduction in viral dissemination to quadriceps at 80 mg/kg, ip bid for 3 days infected with virus at 2 hrs after first compound treatment and measured at 12 hrs post-final dose by RT-qPCR analysis; assay type: functional, organism-based; conditions: time 3.0 day
Zika virus [21] = assay: Antiviral activity against Zika virus PRABC59 infected in human HEK293 cells assessed as reduction of virus load measured at 3 days post-infection by focus-forming assay; assay type: functional; conditions: PRABC59, HEK293, 72 h, time 3 day
[22] = AUC in C57BL/6 mouse at 40 mg/kg, sc; assay type: ADME, organism-based; conditions: in vivo
[23] = Half life of the compound in human liver microsomes in presence of NADPH by LC-MS/MS analysis; assay type: ADME, Microsome
[24] = Cmax in C57BL/6 mouse at 40 mg/kg, po; assay type: ADME, organism-based; conditions: in vivo
[25] = target: Epidermal growth factor receptor (Homo sapiens) (UniProt P00533); assay: Inhibition of EGFR (unknown origin) upto 10 uM relative to control
[26] = Cmax in C57BL/6 mouse at 40 mg/kg, ip; assay type: ADME, organism-based; conditions: in vivo
[27] = Half life in C57BL/6 mouse at 40 mg/kg, sc; assay type: ADME, organism-based; conditions: in vivo
[28] = Bioavailability in C57BL/6 mouse at 40 mg/kg, ip; assay type: ADME, organism-based; conditions: in vivo
[29] = AUC in C57BL/6 mouse at 1 mg/kg, iv; assay type: ADME, organism-based; conditions: in vivo
[30] = Half life in C57BL/6 mouse at 40 mg/kg, po; assay type: ADME, organism-based; conditions: in vivo
Chikungunya virus [31] = assay: as §1, with “26S subgenomic” for “49S genomic”; assay type: functional, organism-based; conditions: time 13.0 hrs
[32] = Cytotoxicity against human NHDF cells deficient of IRF3 assessed as reduction in cell viability incubated for 72 hrs by CellTiter Glo luminescence assay; assay type: toxicity, cell-based
[33] = Bioavailability in C57BL/6 mouse at 40 mg/kg, sc; assay type: ADME, organism-based; conditions: in vivo
West Nile virus [34] = assay: Antiviral activity against West Nile virus NY99 infected in human HEK293 cells assessed as reduction of virus load measured at 3 days post-infection by focus-forming assay; assay type: functional; conditions: NY99, HEK293, 72 h, time 3 day
Chikungunya virus [35] = assay: Antiviral activity against Chikungunya virus 181/25 infected in human NHDF cells assessed as inhibition of infectious virus production at 10 uM treated with infectious cells at 6 hrs post-infection and measured at 48 hrs post-infection following culturing on Vero cells by limiting dilution plaque assay; assay type: functional, organism-based; conditions: time 42.0 hrs
[36] = AUC in C57BL/6 mouse at 40 mg/kg, po; assay type: ADME, organism-based; conditions: in vivo
[37] = Oral bioavailability in C57BL/6 mouse at 40 mg/kg; assay type: ADME, organism-based; conditions: in vivo
[38] = Cmax in C57BL/6 mouse at 40 mg/kg, sc; assay type: ADME, organism-based; conditions: in vivo
[39] = Half life of the compound in mouse liver microsomes in presence of NADPH by LC-MS/MS analysis; assay type: ADME, Microsome
[40] = Half life in C57BL/6 mouse at 40 mg/kg, ip; assay type: ADME, organism-based; conditions: in vivo
Chikungunya virus [41] = assay: Antiviral activity against Chikungunya virus 181/25 infected in C57BL/6J mouse assessed as reduction in viral load in ipsilateral ankle at 80 mg/kg, ip bid for 3 days infected with virus at 2 hrs after first compound treatment and measured at 12 hrs post-final treatment; assay type: functional, organism-based; conditions: time 3.0 day
Homo sapiens [42] = organism: Homo sapiens; assay: Inhibition of PI3K/Akt/mTOR (unknown origin) upto 10 uM relative to control
[43] = target: Dihydroorotate dehydrogenase (quinone), mitochondrial (Homo sapiens) (UniProt Q02127); assay: Inhibition of human DHODH
Chikungunya virus [44] = assay: Antiviral activity against Chikungunya virus 181/25 infected in C57BL/6J mouse assessed as reduction in footpad swelling at 80 mg/kg, ip bid for 3 days infected with virus at 2 hrs after first compound treatment and measured at 12 hrs post-final treatment by digital caliper analysis; assay type: functional, organism-based; conditions: time 3.0 day
[45] = Cytotoxicity against human NHDF cells assessed as reduction in cell viability incubated for 24 hrs by CellTiter Glo luminescence assay; assay type: toxicity, cell-based
[46] = tested on: Venezuelan equine encephalitis virus; assay: Antiviral activity against VEEV TC-83 infected in human NHDF cells assessed as reduction of virus titer treated with cells at 1 hr prior to infection and measured at 24 hrs post-infection by plaque assay; assay type: functional; conditions: TC-83, NHDF, time 25 hrs
Chikungunya virus [47] = assay: Antiviral activity against Chikungunya virus S27 infected in golden hamster BHK-21 cells assessed as inhibition of virus-induced cytopathic effect measured after 4 days by microscopic analysis; assay type: functional, organism-based; conditions: S27, BHK-21, 96 h

Dihydroorotate dehydrogenase (quinone), mitochondrial (Homo sapiens), sequence (Q02127 whole entry): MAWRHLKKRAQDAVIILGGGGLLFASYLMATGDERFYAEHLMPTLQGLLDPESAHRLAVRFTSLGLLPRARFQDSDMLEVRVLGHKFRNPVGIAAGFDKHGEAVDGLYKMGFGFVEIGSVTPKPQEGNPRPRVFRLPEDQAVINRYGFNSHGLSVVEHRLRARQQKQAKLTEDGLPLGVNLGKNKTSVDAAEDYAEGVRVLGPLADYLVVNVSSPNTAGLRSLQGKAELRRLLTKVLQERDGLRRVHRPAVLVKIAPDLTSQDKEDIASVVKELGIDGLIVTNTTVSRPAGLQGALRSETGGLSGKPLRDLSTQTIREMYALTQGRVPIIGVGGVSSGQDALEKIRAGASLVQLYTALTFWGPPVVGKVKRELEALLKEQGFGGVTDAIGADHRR
Epidermal growth factor receptor (Homo sapiens), sequence (P00533 whole entry): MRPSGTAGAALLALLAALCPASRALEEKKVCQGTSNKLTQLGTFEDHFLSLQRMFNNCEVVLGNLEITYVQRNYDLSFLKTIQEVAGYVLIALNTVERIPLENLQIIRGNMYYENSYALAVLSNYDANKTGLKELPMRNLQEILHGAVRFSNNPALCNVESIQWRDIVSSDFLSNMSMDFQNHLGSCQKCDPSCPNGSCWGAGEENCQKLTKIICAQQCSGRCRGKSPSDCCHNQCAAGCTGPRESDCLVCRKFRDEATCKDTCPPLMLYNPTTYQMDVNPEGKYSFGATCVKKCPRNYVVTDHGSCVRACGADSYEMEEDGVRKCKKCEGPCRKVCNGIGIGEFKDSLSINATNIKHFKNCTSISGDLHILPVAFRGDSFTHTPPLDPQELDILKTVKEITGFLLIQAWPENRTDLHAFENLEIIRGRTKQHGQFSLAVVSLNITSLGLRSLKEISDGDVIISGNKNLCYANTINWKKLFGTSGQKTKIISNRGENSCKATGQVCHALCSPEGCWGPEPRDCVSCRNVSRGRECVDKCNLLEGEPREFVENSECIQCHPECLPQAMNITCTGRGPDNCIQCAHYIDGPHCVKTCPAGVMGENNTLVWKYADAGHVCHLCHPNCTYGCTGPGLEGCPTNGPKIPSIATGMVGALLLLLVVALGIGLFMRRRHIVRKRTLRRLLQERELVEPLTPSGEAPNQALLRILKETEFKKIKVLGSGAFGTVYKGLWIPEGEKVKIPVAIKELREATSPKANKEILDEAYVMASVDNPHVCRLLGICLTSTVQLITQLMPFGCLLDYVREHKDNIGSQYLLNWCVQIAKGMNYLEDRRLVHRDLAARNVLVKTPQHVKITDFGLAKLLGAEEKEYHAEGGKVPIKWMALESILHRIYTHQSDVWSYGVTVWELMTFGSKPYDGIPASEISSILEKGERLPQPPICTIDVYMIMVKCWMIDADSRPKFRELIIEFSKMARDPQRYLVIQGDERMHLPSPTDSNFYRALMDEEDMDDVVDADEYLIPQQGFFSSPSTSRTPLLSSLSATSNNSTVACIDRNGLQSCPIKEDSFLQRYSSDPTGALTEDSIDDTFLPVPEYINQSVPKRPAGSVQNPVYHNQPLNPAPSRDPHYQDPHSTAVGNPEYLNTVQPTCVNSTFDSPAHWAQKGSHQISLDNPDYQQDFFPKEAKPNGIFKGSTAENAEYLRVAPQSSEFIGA

## CSc1ncccc1C(=O)Nc1nc(-c2cccc(Nc3ccc(C#N)cc3)c2)cs1
West Nile virus [1]
  log(activity): 2.6
Chikungunya virus [2]
  Activity: inactive
Heme oxygenase 1
  EC50: > 50000 nM
Homo sapiens [3]
  inhibition: < 30%
[4]
  solubility kinetic: < 1 µM
Chikungunya virus [5]
  Activity: Active
[6]
  logD: > 4.04
Chikungunya virus [7]
  Activity: inactive
Homo sapiens [8]
  inhibition: < 30%
[9]
  CC50: > 30000 nM
Homo sapiens [10]
  inhibition: < 30%
Chikungunya virus [11]
  Activity: Active
Chikungunya virus [12]
  Activity: inactive
Dengue virus type 2 [13]
  EC90: 120 nM
Chikungunya virus [14]
  log(activity): 8.7
[15]
  half-life: 1.78 h
Zika virus [16]
  log(activity): 3.5
[17]
  log(activity): 5.9
Dengue virus type 2 [18]
  log(activity): 2.6
[19]
  AUC: 30600 ng·h/mL
Chikungunya virus [20]
  Activity: Active
Zika virus [21]
  EC90: 170 nM
[22]
  AUC: 1520 ng·h/mL
[23]
  half-life: 0.383 h
[24]
  Cmax: 2100 ng/mL
[25]
  inhibition: < 30%
[26]
  Cmax: 2460 ng/mL
[27]
  half-life: 5.7 h
[28]
  bioavailability: 91%
[29]
  AUC: 821 ng·h/mL
[30]
  half-life: 2.38 h
Chikungunya virus [31]
  Activity: inactive
[32]
  CC50 at 72 h: > 30000 nM
[33]
  bioavailability: 5%
West Nile virus [34]
  EC90: 750 nM
Chikungunya virus [35]
  Activity: Active
[36]
  AUC: 15300 ng·h/mL
[37]
  bioavailability: 45%
[38]
  Cmax: 142 ng/mL
[39]
  half-life: 1.23 h
[40]
  half-life: 3.52 h
Chikungunya virus [41]
  Activity: inactive
Homo sapiens [42]
  inhibition: < 30%
[43]
  inhibition: Active
Chikungunya virus [44]
  Activity: inactive
[45]
  CC50 at 24 h: > 30000 nM
[46]
  EC90: 190 nM

## O=C(CCN1CCOCC1)c1c(CO)c2ccccc2[nH]c1=O
Chikungunya virus [47]
  EC50: 2200 nM
